What was measured:
Format in all cases: cell-based, human
[1] = system: LN229 MGMT− cells with shRNA targeting MSH6, MLH1, PMS2, or MSH3; experiment: Short-term cell viability assay in cells lacking other MMR proteins
Text: FIGS. ZS3A-ZS3J. KL-50 (4a) is effective in TMZ (1a)-resistant cells lacking other MMR proteins. (FIG. ZS3A) Western blotting performed in LN229 MGMT+/− cells with stable expression of shRNA targeting MSH6, MLH1, PMS2, or MSH3 to confirm depletion of the shRNA targets. In shMSH6 cells, there is reduced expression of MSH2, and in shMLH1 cells, there is loss of PMS2, due to destabilization in the setting of loss of their heterodimeric partners. GAPDH serves as loading control. (FIG. ZS3B) (Table S1.) IC50 values derived from short-term viability assays in LN229 MGMT+/− cells lines, +/−shRNA, treated with TMZ (1a) or KL-50 (4a). aMGMT TI (therapeutic index)=IC50 (MGMT+/MMR+) divided by IC50 (MGMT−/MMR+). bMMR RI (resistance index)=IC50 (MGMT−/MMR−) divided by IC50 (MGMT−/MMR+). (FIG. ZS3C) Short-term viability assay curves for TMZ (1a) in LN229 MGMT+/−, MMR+/shMSH6 cells. (FIG. ZS3D) Short-term viability assay curves for KL-50 (4a) in LN229 MGMT+/−, MMR+/shMSH6 cells. (FIG. ZS3E) Short-term viability assay curves for TMZ (1a) in LN229 MGMT+/−, MMR+/shMLH1 cells. (FIG. ZS3F) Short-term viability assay curves for KL-50 (4a) in LN229 MGMT+/−, MMR+/shMLH1 cells. (FIG. ZS3G) Short-term viability assay curves for TMZ (1a) in LN229 MGMT+/−, MMR+/shPMS2 cells. […]
Short-term Cell Viability Assay. […] Cells were imaged on a Cytation 3 imaging reader (BioTek) and quantified using CellProfiler software.

[2] = system: DLD1 BRCA2+/− and BRCA2−/− cells; experiment: Short-term cell viability assay in DLD1 isogenic model
Protocol: (§1) FIGS. Z4A-Z4I. KL-50 (4a) activates DNA damage response pathways and cycle arrest in MGMT− cells, independent of MMR, and induces sensitivity in cells deficient in ICL or HR repair. (FIGS. Z4A, Z4B, and Z4C) Phospho-SER139-H2AX (γH2AX) (A), 53BP1 (FIG. Z4B), and phospo-SER33-RPA2 (pRPA) (FIG. Z4C) foci formation quantified by % cells with 10 foci in LN229 MGMT+/−, MMR+/− cells treated with 0.1% DMSO control, 20 μM KL-50 (4a), or 20 μM TMZ (1a) for 48 h. Columns, mean; error bars, SD; n≥5 technical replicates. Additional time course data is presented in FIG. ZS6B to D. (FIG. Z4D) Representative foci images of data in (FIG. Z4A) to (FIG. Z4C). (FIG. Z4E) Percentage of cells in G1, S, and G2 cell cycle phases after treatment as in (A) to (C), measured using integrated nuclear (Hoechst) staining intensity. Columns, mean; error bars, SD; n=3 independent analyses. (FIG. Z4F) Change in percent cells with 1 micronuclei from baseline (DMSO control) after treatment as in (FIG. Z4A) to (FIG. Z4C). Columns, mean; error bars, SD; […] technical replicates; **** p<0.0001; ns, not significant. Additional validation is presented in FIG. ZS9, A and B. (FIG. Z4G) Short-term viability assay curves for KL-50 (4a) in PD20 cells, deficient in FANCD2 (FANCD2−/−) or complemented with FANCD2 (+FANCD2). (FIG. Z4H) Short-term viability assay curves for KL-50 (4a) in PEO4 (BRCA2+) and PEO1 (BRCA2−/−) cells pre-treated with 0.01% DMSO control or 10 μM O^6BG (+O^6BG) for 1 h prior to KL-50 (4a) addition. (FIG. Z4I) Short-term viability assay curves for KL-50 (4a) in DLD1 BRCA2+/− and BRCA2−/− cells pre-treated with 0.01% DMSO control or 10 μM O^6BG (+O^6BG) for 1 h prior to KL-50 (4a) addition. For (FIG. Z4G), (FIG. Z4H), and (FIG. Z4I), points, mean; error bars, SD; n=3 technical replicates.
(§2) Short-term Cell Viability Assay. Cells were seeded in 96-well plates at 1000 or 2000 cells/well and allowed to adhere at 23° C. for 60 min and then incubated overnight at 37° C. Cells were treated with indicated concentrations of compounds in triplicate for 4-6 days prior to fixation with 3.7% paraformaldehyde and nuclear staining with 1 μg/mL Hoechst 33342 dye. Cells were imaged on a Cytation 3 imaging reader (BioTek) and quantified using CellProfiler software.

[3] = system: PD20 cells, FANCD2−/− or +FANCD2; experiment: Short-term cell viability assay in FANCD2 model; conditions: PD20 FANCD2−/− versus +FANCD2
Protocol: as §1
Short-term Cell Viability Assay. Cells were seeded in 96-well plates at 1000 or 2000 cells/well and allowed to adhere at 23° C. for 60 min and then incubated overnight at 37° C. […] Cells were imaged on a Cytation 3 imaging reader (BioTek) and quantified using CellProfiler software.

[4] = system: PEO4 (BRCA2+) and PEO1 (BRCA2−/−) cells; experiment: Short-term cell viability assay in PEO1/4 model
Protocol: as §1, §2

NC(=O)c1ncn2c(=O)n(CCF)nnc12 [KL-50, 3-(2-fluoroethyl)-4-oxo-3H,4H-imidazo[4,3-d][1,2,3,5]tetrazine-8-carboxamide]
activity in MGMT− cells lacking MSH6, MLH1, PMS2, or MSH3 (in words) [1]: confirmed the activity
sensitivity of BRCA2-deficient cells (in words) ([2]; DLD1 BRCA2−/− versus BRCA2+/−, ± 10 μM O^6BG): BRCA2 loss enhanced the toxicity
therapeutic index (TI) ([2]; ratio of IC50 values in MGMT+/BRCA2+ cells compared to MGMT−/BRCA2− cells): ~600 fold
sensitivity of FANCD2-deficient cells (in words) [3]: hypersensitive
therapeutic index (TI) ([4]; PEO1/4 model, ratio of IC50 values): 62 fold
sensitivity of BRCA2-deficient cells (in words) ([4]; PEO1 versus PEO4, ± 10 μM O^6BG): BRCA2 loss enhanced the toxicity

— patent US20240400572A1, “COMPOUNDS AND METHODS FOR TREATING CANCERS THAT ARE MGMT DEFICIENT REGARDLESS OF MMR STATUS” (Yale University, priority 2021, published 2024)
